System: KRAS-mutant PDC multicell tumor spheroid viability
Test: Anticancer human tumor 521955-158-R2-J5-PDC patient-derived pancreatic carcinoma cell line growth inhibition [KRAS2]
Conditions: for IC50: curve of first compound; for viability, T/C: stronger effect = lower value
In short: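 Combination screen of spheroid viability in tumor-cell co-cultures with endothelial (HUVEC) and mesenchymal stem cell stroma. Each agent was tested in half-log dilutions, topping at clinical Cmax or at 10 microM without a known Cmax.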

[1] = second compound 0.0316 µM, first compound 0.01 µM
[2] = second compound 0.0316 µM, first compound 0.0316 µM
[3] = second compound 0.0316 µM, first compound 0.1 µM
[4] = second compound 0.0316 µM, first compound 0.316 µM
[5] = second compound 0.0316 µM, first compound 1 µM
[6] = second compound 0.0316 µM, first compound 3.16 µM
[7] = second compound 0.1 µM, first compound 0.01 µM
[8] = second compound 0.1 µM, first compound 0.0316 µM
[9] = second compound 0.1 µM, first compound 0.1 µM
[10] = second compound 0.1 µM, first compound 0.316 µM
[11] = second compound 0.1 µM, first compound 1 µM
[12] = second compound 0.1 µM, first compound 3.16 µM
[13] = second compound 0.316 µM, first compound 0.01 µM
[14] = second compound 0.316 µM, first compound 0.0316 µM
[15] = second compound 0.316 µM, first compound 0.1 µM
[16] = second compound 0.316 µM, first compound 0.316 µM
[17] = second compound 0.316 µM, first compound 1 µM
[18] = second compound 0.316 µM, first compound 3.16 µM
[19] = second compound 1 µM, first compound 0.01 µM
[20] = second compound 1 µM, first compound 0.0316 µM
[21] = second compound 1 µM, first compound 0.1 µM
[22] = second compound 1 µM, first compound 0.316 µM
[23] = second compound 1 µM, first compound 1 µM
[24] = second compound 1 µM, first compound 3.16 µM
[25] = second compound 3.16 µM, first compound 0.01 µM
[26] = second compound 3.16 µM, first compound 0.0316 µM
[27] = second compound 3.16 µM, first compound 0.1 µM
[28] = second compound 3.16 µM, first compound 0.316 µM
[29] = second compound 3.16 µM, first compound 1 µM
[30] = second compound 3.16 µM, first compound 3.16 µM
[31] = second compound 0.0316 µM, first compound 10 µM
[32] = second compound 0.1 µM, first compound 10 µM
[33] = second compound 0.316 µM, first compound 10 µM
[34] = second compound 1 µM, first compound 10 µM
[35] = second compound 3.16 µM, first compound 10 µM
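Note: viability read after seven days of drug exposure.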

Compound | IC50 (second compound 0.0316 µM) | IC50 (second compound 0.1 µM) | IC50 (second compound 0.316 µM) | IC50 (second compound 1 µM) | IC50 (second compound 3.16 µM) | viability, T/C [2] | viability, T/C [3] | viability, T/C [4] | viability, T/C [5] | viability, T/C [6] | viability, T/C [8] | viability, T/C [9] | viability, T/C [10] | viability, T/C [11] | viability, T/C [14] | viability, T/C [15] | viability, T/C [20] | viability, T/C [21] | viability, T/C [26] | viability, T/C [27] | other results
CC(=O)OC12COC1CC(O)C1(C)C(=O)C(O)C3=C(C)C(OC(=O)C(O)C(NC(=O)OC(C)(C)C)c4ccccc4)CC(O)(C(OC(=O)c4ccccc4)C21)C3(C)C (stereo not given) + C=CC(=O)N1CCN(c2nc(OCC3CCCN3C)nc3c2CCN(c2cccc4cccc(C)c24)C3)CC1CC#N | < 10 nM | < 10 nM | < 10 nM | < 10 nM | < 10 nM | 15.8% | 12.7% | 15.2% | 15.4% | 20.6% | 16.3% | 12.6% | 12.7% | 15.1% | 10% | 9.97% | 13.2% | 10% | 15.5% | 15.3% | viability, T/C [1]: 21.3%; viability, T/C [7]: 19.4%; viability, T/C [12]: 18.3%; viability, T/C [13]: 19.3%; viability, T/C [16]: 11.8%; viability, T/C [17]: 17.3%; viability, T/C [18]: 19.8%; viability, T/C [19]: 18.9%; viability, T/C [22]: 9.11%; viability, T/C [23]: 11.5%; viability, T/C [24]: 14.3%; viability, T/C [25]: 22.1%; viability, T/C [28]: 15.8%; viability, T/C [29]: 16.9%; viability, T/C [30]: 21.8%
CN(C)C/C=C/C(=O)Nc1cc2c(Nc3ccc(F)c(Cl)c3)ncnc2cc1O[C@H]1CCOC1 + C=CC(=O)N1CCN(c2nc(OCC3CCCN3C)nc3c2CCN(c2cccc4cccc(C)c24)C3)CC1CC#N | > 100 nM | > 100 nM | > 100 nM | > 100 nM | < 0.316 nM | 67.9% | 65.6% |  |  |  | 76.7% | 72.4% |  |  | 54.7% | 53.6% | 58.8% | 54.4% | 0.96% | 0.29% | viability, T/C (second compound 0.0316 µM, first compound 0.000316 µM): 97.5%; viability, T/C (second compound 0.0316 µM, first compound 0.001 µM): 104%; viability, T/C (second compound 0.0316 µM, first compound 0.00316 µM): 75.7%; viability, T/C [1]: 73.5%; viability, T/C (second compound 0.1 µM, first compound 0.000316 µM): 83.5%; viability, T/C (second compound 0.1 µM, first compound 0.001 µM): 89.3%; viability, T/C (second compound 0.1 µM, first compound 0.00316 µM): 98.8%; viability, T/C [7]: 70.5%; viability, T/C (second compound 0.316 µM, first compound 0.000316 µM): 77.8%; viability, T/C (second compound 0.316 µM, first compound 0.001 µM): 73.2%; viability, T/C (second compound 0.316 µM, first compound 0.00316 µM): 65.9%; viability, T/C [13]: 56.7%; viability, T/C (second compound 1 µM, first compound 0.000316 µM): 73.5%; viability, T/C (second compound 1 µM, first compound 0.001 µM): 85.1%; viability, T/C (second compound 1 µM, first compound 0.00316 µM): 70.4%; viability, T/C [19]: 65.1%; viability, T/C (second compound 3.16 µM, first compound 0.000316 µM): 4.17%; viability, T/C (second compound 3.16 µM, first compound 0.001 µM): 3.27%; viability, T/C (second compound 3.16 µM, first compound 0.00316 µM): 1.28%; viability, T/C [25]: 1.27%
COC(=O)c1ccc2c(C(=Nc3ccc(N(C)C(=O)CN4CCN(C)CC4)cc3)c3ccccc3)c(O)[nH]c2c1 + C=CC(=O)N1CCN(c2nc(OCC3CCCN3C)nc3c2CCN(c2cccc4cccc(C)c24)C3)CC1CC#N | 1160 nM | 864 nM | 280 nM | < 31.6 nM | < 31.6 nM | 78% | 67.5% | 75.1% | 55.9% | 9.24% | 64.2% | 69.8% | 65.2% | 47.7% | 72.1% | 69.5% | 49.4% | 50.6% | 1.66% | 0.72% | viability, T/C [31]: 0.33%; viability, T/C [12]: 8.93%; viability, T/C [32]: 0.33%; viability, T/C [16]: 43.7%; viability, T/C [17]: 28.6%; viability, T/C [18]: 2.62%; viability, T/C [33]: 1.9%; viability, T/C [22]: 37.3%; viability, T/C [23]: 26.4%; viability, T/C [24]: 1.74%; viability, T/C [34]: 0.25%; viability, T/C [28]: 0.77%; viability, T/C [29]: 0.34%; viability, T/C [30]: 0.55%; viability, T/C [35]: 0.44%
O=C(c1cc(Cc2n[nH]c(=O)c3ccccc23)ccc1F)N1CCN(C(=O)C2CC2)CC1 + C=CC(=O)N1CCN(c2nc(OCC3CCCN3C)nc3c2CCN(c2cccc4cccc(C)c24)C3)CC1CC#N | > 10000 nM | > 10000 nM | > 10000 nM | 6450 nM | < 31.6 nM | 104% | 101% | 99.4% | 85.1% | 80.2% | 95.2% | 94.9% | 93.7% | 92.2% | 94.2% | 92.8% | 100% | 101% | 4.24% | 1.68% | viability, T/C [31]: 61.3%; viability, T/C [12]: 78.5%; viability, T/C [32]: 54%; viability, T/C [16]: 84.8%; viability, T/C [17]: 82.9%; viability, T/C [18]: 78.3%; viability, T/C [33]: 59.1%; viability, T/C [22]: 85%; viability, T/C [23]: 73.3%; viability, T/C [24]: 70%; viability, T/C [34]: 39.5%; viability, T/C [28]: 1.74%; viability, T/C [29]: 1.67%; viability, T/C [30]: 2.07%; viability, T/C [35]: 0.32%

Source: PubChem BioAssay AID1963871 (Molecular Pharmacology Branch, DTP, NCI, 2024)
